Data on 4 compounds can be found in article PMC9175088 (Drug Metabolism Letters, 2021).

Data set [1] can be described thus: Secondary phase I metabolism in liver microsomes, unlabeled substrates. The format is in vitro ADME. To be noted: rat liver microsomes, positive control 10 µM; experiments with M8 as substrate. On the technique in general: Liver microsomes are vesicles of endoplasmic reticulum, rich in cytochrome P450 enzymes.
Data set [2] can be described thus: Enflicoxib metabolism in intestinal microsomes.
Data set [3] is described as follows: Enflicoxib metabolism in intestinal microsomes. This is another data set of the same source.
A short description of data set [4]: Metabolism of enflicoxib and E-6132 in cryopreserved hepatocytes.
For data set [5] the following is noted: enantiomers of enflicoxib; cited from earlier work.
The nature of data set [6]: Metabolism of enflicoxib and E-6132 in cryopreserved hepatocytes. To be noted: male, Wistar, rat.
[7] abbreviates: dog hepatocytes, positive control 10 µM.

What is called half-life is the time needed for the level to fall by half in the phase considered. A higher half-life goes with slow decline. For `C[C@]12CC[C@H]3[C@@H](CCC4=CC(=O)CC[C@@]43C)[C@@H]1CC[C@@H]2O` [Testosterone, testosterone], the K in data set [1] is listed as -0.3314; in data set [2] (rat intestinal microsomes, positive control 10 µM), -0.0052; in data set [3] (dog intestinal microsomes, positive control 10 µM), -0.0195; in data set [4] (setting [7]), -0.0914. The half-life at 10 µM was 133 min in data set [2] (male, Sprague-Dawley, rat, intestinal microsomes, pH 7.4) and 35.5 min in data set [3] (male, beagle, dog, intestinal microsomes, pH 7.4). In addition, in data set [4] (setting [7]), the t1/2 is recorded as 7.6 min.
Regarding `NS(=O)(=O)c1ccc(N2N=C(C(F)(F)F)C[C@H]2c2ccc(F)cc2F)cc1` [Metabolite E-6232, (S)-(-)-enflicoxib], the “Pharmacological activity of enantiomer” value in data set [5] is “active enantiomer”.
As to `NS(=O)(=O)c1ccc(N2N=C(C(F)(F)F)C[C@@H]2c2ccc(F)cc2F)cc1` [Metabolite E-6231, (R)-(+)-enflicoxib], in data set [5], the “Pharmacological activity of enantiomer” value is reported as “negligible”.
With `Cc1cc(=O)oc2cc(O)ccc12` [7-hydroxy-4-methylcoumarin], the half-life at 10 µM is under 5.9 min in data set [6] and 10.5 min in data set [4] (male, beagle, dog, cryopreserved hepatocytes). Moreover, the K in data set [4] (setting [7]) is reported as -0.0658.
